Reference: the NIST ThermoML archive (doi:10.1021/je501054c)
Several values for one entry are separate records, joined by “and”; a condition that tells them apart may be missing. Identical values can stand only once.

Assays:
[1] = mn = molality of the nth substance listed, in mol/kg; conditions: 100 kPa, Liquid; for viscosity: Capillary tube (Ostwald / Ubbelohde) method; for mass density: Vibrating tube method
[2] = 100 kPa, Liquid; for mass density: Vibrating tube method

CCCCCCn1cc[n+](C)c1.[Cl-] [1-hexyl-3-methylimidazolium chloride] + CC#N
[1]
Conditions | mass density, 298.15 K [kg/m3] | mass density, 303.15 K [kg/m3] | mass density, 308.15 K [kg/m3] | mass density, 313.15 K [kg/m3] | viscosity, 298.15 K [mPa·s]
m1 = 0.0205 | 777.74 | 772.53 | 764.33 | 756.52 | –
m1 = 0.022 | – | – | – | – | 0.3485
m1 = 0.041 | 778.81 | 773.62 | 765.43 | 757.67 | –
m1 = 0.0461 | – | – | – | – | 0.3524
m1 = 0.06 | 779.78 | 774.61 | 766.44 | 758.72 | –
m1 = 0.0622 | – | – | – | – | 0.3551
m1 = 0.0809 | 780.84 | 775.69 | 767.53 | 759.86 | –
m1 = 0.0814 | – | – | – | – | 0.3589
m1 = 0.1002 | 781.8 | 776.66 | 768.53 | 760.89 | –
m1 = 0.1057 | – | – | – | – | 0.3631
m1 = 0.1197 | 782.75 | 777.64 | 769.5 | 761.94 | –
m1 = 0.123 | – | – | – | – | 0.367
m1 = 0.1374 | 783.62 | 778.51 | 770.4 | 762.83 | –
m1 = 0.1423 | – | – | – | – | 0.3696
m1 = 0.1544 | 784.44 | 779.33 | 771.23 | 763.72 | –
m1 = 0.1606 | – | – | – | – | 0.3741
m1 = 0.1788 | 785.56 | 780.48 | 772.4 | 764.93 | –
m1 = 0.181 | – | – | – | – | 0.3776
m1 = 0.1969 | 786.4 | 781.33 | 773.26 | 765.84 | –
m1 = 0.2045 | – | – | – | – | 0.3813

CCC[n+]1ccn(C)c1.[Br-] [1-methyl-3-propylimidazolium bromide] + CC#N
[1]
Conditions | mass density, 298.15 K [kg/m3] | mass density, 303.15 K [kg/m3] | mass density, 308.15 K [kg/m3] | mass density, 313.15 K [kg/m3] | viscosity, 298.15 K [mPa·s]
m1 = 0.0248 | 778.67 | 773.46 | 763.49 | 757.41 | –
m1 = 0.0251 | – | – | – | – | 0.3488
m1 = 0.0422 | – | – | – | – | 0.3525
m1 = 0.0423 | 780.09 | 774.88 | 764.92 | 758.84 | –
m1 = 0.0636 | 781.79 | 776.59 | 766.63 | 760.57 | –
m1 = 0.0644 | – | – | – | – | 0.3573
m1 = 0.081 | 783.18 | 777.98 | 768.02 | 761.96 | –
m1 = 0.0816 | – | – | – | – | 0.3607
m1 = 0.1036 | 784.95 | 779.74 | 769.8 | 763.74 | –
m1 = 0.1051 | – | – | – | – | 0.3633
m1 = 0.123 | 786.44 | 781.24 | 771.31 | 765.27 | –
m1 = 0.1245 | – | – | – | – | 0.3675
m1 = 0.1437 | 788.02 | 782.86 | 772.93 | 766.87 | –
m1 = 0.1461 | – | – | – | – | 0.3724
m1 = 0.1636 | 789.52 | 784.35 | 774.44 | 768.39 | –
m1 = 0.1667 | – | – | – | – | 0.3771
m1 = 0.1835 | 791.02 | 785.84 | 775.93 | 769.89 | –
m1 = 0.1873 | – | – | – | – | 0.38
m1 = 0.2042 | 792.57 | 787.39 | 777.47 | 771.44 | –
m1 = 0.2082 | – | – | – | – | 0.3844

CCCCCn1cc[n+](C)c1.[Br-] [1-pentyl-3-methylimidazolium bromide] + CC#N
[1]
Conditions | mass density, 298.15 K [kg/m3] | mass density, 303.15 K [kg/m3] | mass density, 308.15 K [kg/m3] | mass density, 313.15 K [kg/m3] | viscosity, 298.15 K [mPa·s]
m1 = 0.03 | 779.11 | 770.63 | 762.52 | 755.09 | –
m1 = 0.0301 | – | – | – | – | 0.3532
m1 = 0.0509 | 780.82 | 772.34 | 764.26 | 756.83 | –
m1 = 0.0511 | – | – | – | – | 0.3605
m1 = 0.0721 | 782.52 | 774.06 | 765.99 | 758.59 | –
m1 = 0.0726 | – | – | – | – | 0.366
m1 = 0.1016 | 784.87 | 776.42 | 768.38 | 760.99 | –
m1 = 0.1026 | – | – | – | – | 0.3724
m1 = 0.123 | 786.55 | 778.11 | 770.11 | 762.71 | –
m1 = 0.1245 | – | – | – | – | 0.3782
m1 = 0.1434 | 788.15 | 779.71 | 771.7 | 764.33 | –
m1 = 0.1455 | – | – | – | – | 0.3814
m1 = 0.1628 | 789.62 | 781.22 | 773.22 | 765.86 | –
m1 = 0.1655 | – | – | – | – | 0.3873
m1 = 0.1944 | 792 | 783.62 | 775.67 | 768.32 | –
m1 = 0.1983 | – | – | – | – | 0.3928
m1 = 0.211 | 793.26 | 784.87 | 776.92 | 769.58 | –
m1 = 0.2155 | – | – | – | – | 0.3975
m1 = 0.2313 | 794.76 | 786.39 | 778.44 | 771.12 | –
m1 = 0.2367 | – | – | – | – | 0.4016

CCCCCCn1cc[n+](C)c1.[Br-] [3-hexyl-1-methyl-1H-imidazolium bromide] + CC#N
[1]
Conditions | mass density, 298.15 K [kg/m3] | mass density, 303.15 K [kg/m3] | mass density, 308.15 K [kg/m3] | mass density, 313.15 K [kg/m3] | viscosity, 298.15 K [mPa·s]
m1 = 0.0208 | 778.37 | 773.15 | 763.14 | 754.27 | –
m1 = 0.0209 | – | – | – | – | 0.353
m1 = 0.0449 | 780.33 | 775.12 | 765.12 | 756.27 | –
m1 = 0.0451 | – | – | – | – | 0.3625
m1 = 0.0648 | 781.93 | 776.74 | 766.75 | 757.91 | –
m1 = 0.0653 | – | – | – | – | 0.367
m1 = 0.0817 | 783.29 | 778.1 | 768.12 | 759.29 | –
m1 = 0.0824 | – | – | – | – | 0.372
m1 = 0.1001 | 784.72 | 779.55 | 769.58 | 760.76 | –
m1 = 0.1011 | – | – | – | – | 0.3774
m1 = 0.124 | 786.57 | 781.42 | 771.48 | 762.66 | –
m1 = 0.1255 | – | – | – | – | 0.3842
m1 = 0.1424 | 788 | 782.85 | 772.92 | 764.1 | –
m1 = 0.1445 | – | – | – | – | 0.3882
m1 = 0.1649 | 789.72 | 784.57 | 774.66 | 765.86 | –
m1 = 0.1676 | – | – | – | – | 0.3937
m1 = 0.1832 | 791.1 | 785.97 | 776.06 | 767.28 | –
m1 = 0.1866 | – | – | – | – | 0.3982
m1 = 0.2011 | 792.44 | 787.33 | 777.41 | 768.63 | –
m1 = 0.2052 | – | – | – | – | 0.4022

CC#N [acetonitrile]
Conditions | viscosity [mPa·s]
[2], 298.15 K, Capillary tube (Ostwald / Ubbelohde) method | 0.343

[2]
Conditions | mass density
298.15 K | 776.65 kg/m3
303.15 K | 771.43 kg/m3 and 768.14 kg/m3
308.15 K | 761.45 kg/m3 [middle of 4 runs]
313.15 K | 755.34 kg/m3 [middle of 4 runs]
